Data on 5 molecules can be found in article PMC10330721, “Chemo-enzymatic synthesis and biological activity evaluation of propenylbenzene derivatives” (Frontiers in Microbiology, 2023).

In one series the test system is C. albicans 595/20. The series can be described thus: Fungistatic activity assay, broth microdilution. The note with it: Candida albicans. Type of series: cell-based. How it is done: (§1) Fungistatic activity was determined using Candida albicans ATCC 90028 from the American Type Culture Collection (ATCC, Manassas, VA, United States), and clinical isolates, C. albicans 636/20, C. albicans 595/20, and C. albicans 38 obtained from Wrocław Medical University, Wrocław, Poland.
(§2) All compounds were tested for biological activity against C. albicans ATTC 90028, C. albicans 636/20, C. albicans 595/20, and C. albicans 38 using the broth microdilution method. YPD medium (20 g glucose, 20 g Bacto Peptone, 10 g yeast extract, and 1 L of distilled water, pH 6.5) was used for the tests. The compound solutions were prepared in DMSO and diluted in YPD to obtain final concentrations in the range of 10–250 μg/mL. One hundred microlitres of each solution was pipetted into the wells of a 96-well microtiter plate. The inoculum was standardized to 0.5 McFarland standard and then diluted to obtain a final suspension with a cell density of 0.5–2.5 × 10^3 CFU/mL. The inoculum size was 100 μL. The positive control comprised DMSO added in the same concentration as the tested compounds in the inoculum, whereas the negative control consisted of DMSO diluted in the broth without the addition of inoculum. The microtiter plates were incubated in a Biosan PST-60 HL Plate Shaker-Thermostat (Riga, Latvia) at 35°C under shaking at 1,000 rpm for 24 h.

The next series concerns C. albicans strains. The series can be described thus: Fungistatic activity assay, broth microdilution, values given over several strains. It is filed as cell-based, Candida albicans. The note with it: for MIC50: Candida albicans, read-out: MIC50 (over all tested strains). How it is done:
as §1, §2

Series [1] in a line: Free-radical scavenging assay (DPPH test). Type of series: biochemical. The note with it: DPPH 190 μM in methanol, 1 h, 25°C, absorbance 517 nm. On the procedure: The antiradical activity of all compounds was tested using the 2,2-diphenyl-1-picrylhydrazyl (DPPH) test according to a previously described method ([Herald et al., 2012]; [Dudek et al., 2022]). One litre of a fresh solution of 190 μM DPPH in pure methanol was prepared in a dark glass bottle. The solution was kept protected from light and used within a week. The tested compounds and ascorbic acid as a positive control were prepared at concentrations in the range of 5–100 μg/mL. Two hundred microlitres of the test compound dilutions was added to each well of a 96-well microtiter plate. Then, […] of a 190 μM solution of DPPH in methanol was added. DPPH was also added to the negative control, in which 200 μL of methanol was added instead of the test compounds. All samples were tested at least in triplicate. The microtiter plates were incubated in the Biosan PST-60 HL thermoshaker at 25°C under shaking at 1,000 rpm for 1 h. […] EC50 values were calculated using Quest Graph™ EC50 Calculator (AAT Bioquest, Inc.).

Series [2] is described as follows: Haemolytic activity assay. It is filed as cell-based. The note with it: human red blood cells (RBCs) from healthy donors, 37°C, read-out: Percentage of haemolysis. How it is done: This test is based on comparison of the cytotoxicity of all tested compounds in human red blood cells (RBCs) with that in a control group. RBCs for this method were obtained from a blood center from examined and healthy donors. The compounds were tested at 10, 20, 40, 60, 80, and 100 μM concentrations. The control sample contained only ethanol in the same volume as the test samples. […] The samples were incubated at 37°C for 1 h. Then, the absorbance at 540 nm was measured using a UV–Vis spectrophotometer (Specord 40, Analytik Jena, Jena, Germany). The haemolytic activity of the compounds was determined as the ratio of the absorbance of haemoglobin in the test samples to that in completely haemolyzed cells multiplied by 100%.

A further series relates to RBCs membrane. The series is described as follows: Fluorescence spectroscopy of the RBCs membrane (DPH probe anisotropy). It is filed as cell-based, human. The note with it: membranes of RBCs, 37 °C. On the procedure: Using the DPH probe, the anisotropy values of cell membranes of RBCs modified with the test compounds were measured. RBCs for this analysis were prepared according to the method described in subsection 2.5.3. Then, the DPH probe was added to RBCs with a haematocrit of 0.2%. The final concentration of the probe in the sample was 1.3 μM. The mixture was incubated protected from light at 37°C for 30 min. Then, the compounds dissolved in ethanol were added. The compounds were tested at 20, 60, and 100 μM concentrations. Samples with compounds and control samples with alcohol of the appropriate concentration were incubated at 37°C for 1 h. Measurements in triplicate were made in quartz cuvettes using a CARY Eclipse fluorimeter (Varian, San Diego, CA, United States) at 37°C. The excitation wavelength for the DPH probe is λexc = 360 nm and the emission wavelength is λem = 426 nm.

Series [3] concerns human hepatocellular carcinoma HepG2 cells. The arrangement: method as in Yoo et al., 2005; Song et al., 2014, 2020. The note with it: ref Yoo et al., 2005; Song et al., 2014, 2020; cited from earlier work.
Series [4] has as its system human osteosarcoma MG63 cell line. The arrangement: method as in Pandit et al., 2020. The note with it: ref Pandit et al., 2020; cited from earlier work.
The conditions of series [5]: cited from earlier work.
The subject of a further series is HepG2 cells. The series can be described thus: Resazurin-based viability assay. The note with it: 24 h, 1, 50 and 200 μg/mL. Type of series: cell-based, human. On the procedure: (§3) The human HepG2 and Caco-2 cell lines were obtained from the American Type Culture Collection (HB-8065™ and HTB-37™) and the MG-63 cell line was obtained from the European Collection of Authenticated Cell Cultures (Merck, Poznań, Poland). HepG2 cells were cultured in Dulbecco’s modified Eagle’s Medium - low glucose (Merck) supplemented with 10% foetal bovine serum (FBS) (Merck). Caco-2 cells were cultured in Dulbecco’s modified Eagle’s medium - high glucose (Merck) supplemented with 10% FBS, 2% HEPES buffer (Thermo Fisher Scientific, Warszawa, Poland), 1% Penicillin–Streptomycin-Amphotericin B Solution (100×, Merck), 1% MEM solution (100×, Thermo Fisher Scientific), and 1% Gentamycin Solution (10 mg/mL, Merck). MG-63 cells were cultured in Minimum Essential Medium (Merck) supplemented with 10% FBS. All cells were cultured in an atmosphere of 5% CO2 at 37°C.
HepG2, Caco-2, and […] were seeded in 96-well plates at 20,000 cells per well, and MG-63 cells at 10,000 cells per well, as described previously ([Marycz et al., 2012]; [Kornicka et al., 2017]). The tested compounds were dissolved in ethanol at 10 mg/mL. The concentrations were then adjusted to 1, 50, and 200 μg/mL in culture medium. Four controls were prepared: no ethanol added, and 0.01, 0.5, and 2% EtOH. The cells were treated with the compounds for 24 h. Then, cell viability was evaluated using the resazurin-based assay kit (TOX8), as described previously ([Grzesiak et al., 2011]; [Marycz et al., 2018]). The culture medium was replaced with medium containing 10% resazurin dye. The cells were incubated at 37°C in an atmosphere of 5% CO2 for 2 h. Absorbance levels were measured spectrophotometrically (Epoch) at a wavelengths of 600 nm for resazurin and 690 nm as a reference.

A further series relates to MG63 cells. The series can be described thus: Resazurin-based viability assay. Type of series: cell-based, human. The note with it: 24 h, 1, 50 and 200 μg/mL. On the procedure: as §3, with “HepG2” for “The human HepG2 and Caco-2 cell lines were obtained from the American Type Culture Collection (HB-8065™ and HTB-37™) and the MG-63 cell line was obtained from the European Collection of Authenticated Cell Cultures (Merck, Poznań, Poland). HepG2”
The tested compounds were dissolved in ethanol at 10 mg/mL. The concentrations were then adjusted to 1, 50, and 200 μg/mL in culture medium. Four controls were prepared: no ethanol added, and 0.01, 0.5, and 2% EtOH. The cells were treated with the compounds for 24 h. […] The culture medium was replaced with medium containing 10% resazurin dye. The cells were incubated at 37°C in an atmosphere of 5% CO2 for 2 h. Absorbance levels were measured spectrophotometrically (Epoch) at a wavelengths of 600 nm for resazurin and 690 nm as a reference.

The next series deals with C. albicans ATTC18804. The arrangement: method as in Kubo et al., 1993. The note with it: C. albicans ATTC18804 ref Kubo et al., 1993; cited from earlier work.
For series [6], the system named is human colon carcinoma Caco-2 cell line. The note with it: ref Lea et al., 2016; Padhy et al., 2022; cited from earlier work.
The mark [7] stands for this setting: C. albicans 636/20, 595/20, 38 and ATTC90028.

Converted amounts (≈) assume the structure as drawn. Like-named read-outs stand apart in the source and are kept apart here.

Consider `C/C=C/c1ccc(OC)cc1` [3a, anethole], for which the MIC50 in the series on C. albicans 595/20 (C. albicans 595/20, 24 h, 35°C, tested 10–250 μg/mL, read-out: MIC50) is 62 µg/mL (≈ 418 µM). The MIC50 with C. albicans strains (setting [7]) was in the range of 62 to 100 µg/mL (≈ 418 to 675 µM). Moreover, the EC50 antiradical activity in series [1] was 19.13 µg/mL (≈ 129 µM). Besides, in series [2], the hemolysis at 1 h, 10 µM was found to be 1.36 ± 0.296%; the hemolysis at 1 h, 20 µM turned out to be 1.14 ± 0.159%; the hemolysis at 1 h, 40 µM came to 2.23 ± 0.13%; the hemolysis at 1 h, 60 µM stood at 2.54 ± 0.267%. In addition, in series [2], the hemolysis at 1 h, 80 µM was found to be 2.2 ± 0.108% and the hemolysis at 1 h, 100 µM came out at 2.5 ± 0.39%. Moreover, the “Fluorescence anisotropy of the DPH probe” value in the series on RBCs membrane (20 µM) stood at 0.263 ± 0.005. Further, the “Fluorescence anisotropy of the DPH probe” value in the series with RBCs membrane (60 µM) is 0.261 ± 0.009. Also, the “Fluorescence anisotropy of the DPH probe” value in the series with RBCs membrane (100 µM) is listed as 0.259 ± 0.008. Moreover, the “Effect on growth of HepG2 cells (in words)” value in [3] was “inhibited the growth”. Moreover, the “Proliferation and apoptosis in MG63 cell line (in words)” value in [4] was “caused abrogation in proliferation and induces apoptosis”.
Take `C=CCc1ccc2c(c1)OCO2` [safrole]: in [5] (ref Eid and Hawash (2021)), the IC50 antioxidant activity is 50.28 µg/mL (≈ 310 µM). The “Effect on growth of HepG2 cells (in words)” value in [3] is “inhibited the growth”.
`C/C=C/c1ccc2c(c1)OCO2` [1a, isosafrole] had an MIC50 in the series on C. albicans 595/20 (595/20, 24 h) of 65 µg/mL (≈ 401 µM). Also, the MIC50 in the series on C. albicans strains is under 100 µg/mL. In [2], the hemolysis at 1 h, 10 µM turned out to be 2.41 ± 0.481%; the hemolysis at 1 h, 20 µM is 1.54 ± 0.202%; the hemolysis at 1 h, 40 µM came out at 2.18 ± 0.153%; the hemolysis at 1 h, 60 µM was 2.4 ± 0.446%. Also, in series [2], the hemolysis at 1 h, 80 µM worked out at 2.585 ± 0.014% and the hemolysis at 1 h, 100 µM came out at 2.55 ± 0.007%. In addition, in the series on RBCs membrane (20 µM), the “Fluorescence anisotropy of the DPH probe” value is 0.262 ± 0.016. Besides, in the series on RBCs membrane (60 µM), the “Fluorescence anisotropy of the DPH probe” value was determined as 0.264 ± 0.030. The “Fluorescence anisotropy of the DPH probe” value in the series with RBCs membrane (100 µM) is 0.237 ± 0.041. Also, the “Effect on HepG2 proliferation / viability (in words)” value in the series on HepG2 cells was “more strongly significantly suppressed the viability”. Also, the “Effect on MG63 proliferation / viability (in words)” value with MG63 cells was “promoted MGC63 proliferation”. Moreover, the MIC with C. albicans ATTC18804 is 100 µg/mL (≈ 617 µM). Besides, the “Apoptosis in Caco-2 cell line (in words)” value in series [6] was “induced apoptosis”.
For `O=C1O[C@H]([C@@H](O)CO)C(O)=C1O` [ascorbic acid, reference compound], the EC50 antiradical activity in series [1] stood at 15.21 µg/mL (≈ 86.4 µM).
Regarding isoeugenol [5a], the “MIC50 (over all tested strains)” value with C. albicans strains (setting [7]) lay in the range of 52 to 88 µg/mL. The “Fluorescence anisotropy of the DPH probe” value in the series with RBCs membrane (20 µM) is given as 0.259 ± 0.009; in the series with RBCs membrane (60 µM) it was 0.272 ± 0.085; in the series with RBCs membrane (100 µM), 0.256 ± 0.023. Besides, the “Effect on MG63 proliferation / viability (in words)” value in the series with MG63 cells is on record as “promoted MGC63 proliferation”. The MIC in the series with C. albicans ATTC18804 was 400 µg/mL. For the same molecule, in series [5] (ref Siva et al. (2019)), the antioxidant activity was 86%.
